For assay [1], the system named is panelists. The experiment in a line: Taste evaluation: overall sweetness of 30 ppm solutions against sucrose controls (sweetness recognition threshold). The conditions noted are these: for sweetness recognition threshold: lowest concentration perceivable by the human sense of taste; for sucrose equivalence / isosweetness of a solution of the compound alone: solution containing 30 ppm compound, no additional sweetener, isosweet sucrose solution. Type of assay: in vivo, human. Here is the method:
(§1) Solutions were made by dissolving all ingredients in treated water. For citric acid buffer, citric acid and potassium citrate were added in a sufficient amount to bring the pH to 3.2. Finished products were filled in 300 ml glass bottles and stored in the refrigerator and tasted the following day.
(§2) Beverages in citric acid/sodium citrate buffer were kept at 4° C. in the refrigerator and tasted the following day. Four panelists evaluated the beverages. Bottles were removed from the refrigerator and about 20 ml of beverage poured in 2 oz. plastic cups. Panelists were instructed not to swallow the samples and additional cups were provided to spit the sample in. Mineral water was given for palate rinsing before tasting and between tasting different samples.
To evaluate 30 ppm of rebaudioside N and rebaudioside O for overall sweetness, panelists were provided solutions of 1%, 1.5%, and 2% sucrose in citric acid/sodium citrate buffer as controls. All panelists determined the overall sweetness of 30 ppm of rebaudioside N and rebaudioside O solutions in citric acid/sodium citrate buffer to fall between 1% and 1.5% sucrose controls. Accordingly, 30 ppm was determined to be the sweetness recognition threshold concentration for both compounds.

Assay [2] has as its system panelists. The experiment in a line: Taste evaluation: sweetness enhancement of 30 ppm added to 8% sucrose beverage against sucrose controls. Type of assay: in vivo, human. The following applies: for sweetness enhancement: 30 ppm compound added to beverage containing 8% sucrose, citric acid/sodium citrate buffer; for increase in isosweetness provided by the compound: 30 ppm compound in beverage with 8% (w/v) sucrose; for isosweetness of beverage containing sucrose and compound: beverage with 8% (w/v) sucrose and 30 ppm compound, isosweet sucrose solution. As for the experimental part: as §1, §2
Sweetness enhancement of rebaudioside N and rebaudioside O was evaluated by adding 30 ppm to a solution of 8% sucrose in citric acid/sodium citrate buffer (pH 3.2). The new solutions were then evaluated for their overall sweetness against three controls of 8%, 9%, and 10% sucrose in citric acid/sodium citrate buffer solutions (pH 3.2).

From US10570164B2, “Steviol glycosides, their compositions and their purification” (The Coca-Cola Company, priority 2013, dated 2020) come the findings set out here.

For `C=C1C[C@@]23CCC4[C@](C)(C(=O)OC5OC(CO)C(O)C(OC6OC(CO)C(O)C(O)C6O)C5OC5OC(C)C(O)C(O)C5O)CCC[C@@]4(C)[C@@H]2CC[C@]1(OC1OC(CO)C(O)C(OC2OC(CO)C(O)C(O)C2O)C1OC1OC(CO)C(O)C(O)C1O)C3` (stereo partly drawn) [Compound (2f), 13-[(2-O-β-D-glucopyranosyl-3-O-β-D-glucopyranosyl-β-D-glucopyranosyl)oxy]ent-kaur-16-en-19-oic acid-[(2-O-α-D-rhamnopyranosyl-3-O-β-D-glucopyranosyl-β-D-glucopyranosyl)ester]], in the assay with panelists [1], the sweetness recognition threshold entry is on record as “about 30 ppm” and the “sucrose equivalence / isosweetness of a solution of the compound alone” value is given as 1.0-1.5 % (w/v). In the assay with panelists [2], the sweetness enhancement was 2.5-3.0%; the “increase in isosweetness provided by the compound” value is listed as 2.5-3.0 % (w/v); the “isosweetness of beverage containing sucrose and compound” value is listed as 10.5-11.0 % (w/v).

`C=C1C[C@@]23CCC4[C@](C)(C(=O)OC5OC(CO)C(O)C(OC6OC(CO)C(O)C(O)C6O)C5OC5OC(C)C(O)C(OC6OC(CO)C(O)C(O)C6O)C5O)CCC[C@@]4(C)[C@@H]2CC[C@]1(OC1OC(CO)C(O)C(OC2OC(CO)C(O)C(O)C2O)C1OC1OC(CO)C(O)C(O)C1O)C3` (stereo partly drawn) [Compound (2g), 13-[(2-O-β-D-glucopyranosyl-3-O-β-D-glucopyranosyl-β-D-glucopyranosyl)oxy]ent-kaur-16-en-19-oic acid-[(2-O-(3-O-β-D-glucopyranosyl-α-D-rhamnopyranosyl)-3-O-β-D-glucopyranosyl-β-D-glucopyranosyl)ester]]: in the assay on panelists [1], the sweetness recognition threshold result is given as “about 30 ppm” and the “sucrose equivalence / isosweetness of a solution of the compound alone” value is 1.0-1.5 % (w/v). Further, in the assay on panelists [2], the sweetness enhancement result is “about 2.0%”; the “increase in isosweetness provided by the compound” value is given as 2.0 % (w/v); the “isosweetness of beverage containing sucrose and compound” value is given as 10.0 % (w/v). The “overall sweetness of beverage against sucrose controls” value in the assay on panelists [2] (30 ppm compound and 8% sucrose in citric acid/sodium citrate buffer (pH 3.2), 8%, 9%, 10% sucrose controls) was roughly 10%.
